{"source": "patent US20230077290A1", "about": "“HEAVY METAL-FREE CALCIUM HYDROXIDE-BASED ACTIVE SUBSTANCE” (KALKFABRIK NETSTAL AG, priority 2016, published 2023)", "key": {"Plasmopara viticola": {"test_system": "Plasmopara viticola", "experiment": "Tests against Plasmopara viticola on grapes, dust application before inoculation", "format": "in vivo, Plasmopara viticola on Chasselas grapes", "settings": "for % leaf surface with symptoms of infection: average +/- standard deviation; for effect on Plasmopara viticola infection, in words: grapes, dust application, positive control Kocide Opti 0.003%", "experimental": "Tests Against Plasmopara Viticola on Grapes The above-describe samples were tested in an independent plant research institute. The tests were set up as blind tests parallel to the following controls presented below. Study Design: […] For inoculation, the abaxial side of the fully developed leaves of Plasmopara viticola (50,000 spores/mL) were sprayed, and the entire plant was inoculated. Two types of all of the tests were performed: […] Dust application on the dry test plant before inoculation with the pathogen (so-called standard method) […] Dust application on a wet test plant before inoculation with the pathogen. […] Portion of infected leaf surface in percent of the overall leaf surface. The combined “efficacy severity” was then calculated from this in percent. Controls: […]"}, "[1]": {"settings": "known compounds with very high capacity; cited from earlier work"}, "[2]": {"settings": "Type 1 (dry), study of examples 1 and 2"}, "[3]": {"settings": "Type 2 (wet), study of examples 1 and 2"}, "[4]": {"settings": "Type 1 (dry), study of examples 3 and 4"}, "[5]": {"settings": "Type 2 (wet), study of examples 3 and 4"}}, "data": [{"compound": "[Ca+2].[OH-].[OH-]", "note": "[Example 2, Calcium hydroxide]", "values": [{"measurement": "% leaf surface with symptoms of infection", "setting": "Plasmopara viticola; Type 1 (dry) dust application on dry plant, study of examples 1 and 2", "result": "50 +/− 22%"}, {"measurement": "% infected leaves", "setting": "Plasmopara viticola; [2]", "result": "89 +/− 17%"}, {"measurement": "Efficacy severity", "setting": "Plasmopara viticola; [2]", "result": 46.8, "unit": "%"}, {"measurement": "% leaf surface with symptoms of infection", "setting": "Plasmopara viticola; Type 2 (wet) dust application on wet plant, study of examples 1 and 2", "result": "59 +/− 22%"}, {"measurement": "% infected leaves", "setting": "Plasmopara viticola; [3]", "result": "93 +/− 10%"}, {"measurement": "Efficacy severity", "setting": "Plasmopara viticola; [3]", "result": 36.4, "unit": "%"}, {"measurement": "effect on Plasmopara viticola infection, in words", "setting": "Plasmopara viticola", "result": "only a slight reduction of the infection"}]}, {"compound": "O=C([O-])[O-].[Li+].[Li+]", "note": "[Li2CO3]", "values": [{"measurement": "acid neutralization capacity bH+", "setting": "[1]", "result": 27, "unit": "mol/kg"}]}, {"compound": "N", "note": "[NH3]", "values": [{"measurement": "acid neutralization capacity bH+", "setting": "[1]", "result": 59, "unit": "mol/kg"}]}, {"compound": "[Na+].[OH-]", "note": "[NaOH]", "values": [{"measurement": "acid neutralization capacity bH+", "setting": "[1]", "result": 25, "unit": "mol/kg"}]}, {"compound": "Calcium stearate [Example 4]", "values": [{"measurement": "Efficacy severity", "setting": "Plasmopara viticola; [4]", "result": 7.3, "unit": "%"}, {"measurement": "% leaf surface with symptoms of infection", "setting": "Plasmopara viticola; [4]", "result": "62 +/− 20%"}, {"measurement": "% infected leaves", "setting": "Plasmopara viticola; Type 1 (wet) as printed, study of examples 3 and 4", "result": "93 +/− 10%"}, {"measurement": "% infected leaves", "setting": "Plasmopara viticola; [5]", "result": "91 +/− 10%"}, {"measurement": "Efficacy severity", "setting": "Plasmopara viticola; [5]", "result": 13.3, "unit": "%"}, {"measurement": "% leaf surface with symptoms of infection", "setting": "Plasmopara viticola; [5]", "result": "58 +/− 8%"}, {"measurement": "effect on Plasmopara viticola infection, in words", "setting": "Plasmopara viticola", "result": "inactive"}]}]}
